Experimental data taken from PMC4279406, “Simultaneous targeting of PI3Kδ and a PI3Kδ-dependent MEK1/2-Erk1/2 pathway for therapy in pediatric B-cell acute lymphoblastic leukemia” (Oncotarget, 2014).

Tests used:
[1] = system: panel of 61 protein kinases; test: Panel of 61 protein kinases; assay type: biochemical, human; settings: 10 μM
Text: Utilizing the crystal structure of PI3Kδ, we designed and synthesized a series of compounds in an effort to discover new potent and selective PI3Kδ inhibitors, which bind to PI3Kδ differently from CAL-101. […] The benzimidazole group of X-370 extends into the affinity pocket, where its nitrogen acts as a hydrogen bond acceptor for the primary amine of Lys779. The difluoromethyl group of X-370 points toward Pro758 in the hydrophobic affinity pocket. Instead of wedging between Met752 and Trp760, a binding mode utilized by CAL-101 to generate specificity against PI3Kδ (Figure S1), the pyrrole group of X-370 presses tightly against Trp760. These specific interactions of X-370 with p110δ confer a selective and potent inhibition of PI3Kδ. […]
In vitro kinase profile assays were analyzed by the Kinase Profiler Service (Millipore, United Kingdom) following its guidelines. […] The PI3K kinase activity was determined in the increasing concentration of ATP and X-370 with PI3-Kinase HTRF™ Assay kit (Millipore) as described previously. […]
Cell lysates were probed with indicated antibodies. The IC50 values were calculated based on relative band intensity measured with ImageQuant™ TL (GE Healthcare Life Sciences, Piscataway, NJ). […]

Raji MEK DD cells = test: Erk1/2 phosphorylation in Raji cells expressing MEK DD (Western blot); assay type: cell-based, human; settings: 1 h
Protocol: Figure 5 Inhibition of Erk1/2 phosphorylation by X-370 contributed to its antiproliferative activity (A-C) X-370 inhibited Erk1/2 phosphorylation via PI3K-PDK1-MEK1/2 cascade but not the PI3K-Gab1 positive feedback loop. (A) Raji and SU-DHL-6 cells were exposed to 1 μM X370 for 3 h and protein fraction from cellular membrane was separated using Native Membrane Protein Extraction Kit and probed. WCL: whole cell lysate. (B) Inhibition of PDK1 or MEK1/2 abrogated Erk1/2 phosphorylation. Cells were treated with pharmacological inhibitors of Raf (AZ 628, PLX4032), MEK1/2 (AZD6244), p90RSK (BI-D1870), PI3Kδ (X-370), PDK1 (BX-912), Akt (MK-2206), mTOR (AZD8055) or mTORC1 (Rapamycin) respectively and indicated proteins were detected. (C) X-370 disrupted the association between PDK1 and MEK1/2. Raji cells were treated with 1 μM X370 for 1 h and cell lysates were immunoprecipitated with anti-PDK1 antibody and indicated proteins were detected. WCL: whole cell lysate. […] (E) Raji and Raji MEK DD cells were treated with X-370 for 72 h and cell proliferation was detected by CCK-8 assay. (F) Raji MEK DD cells were treated with X-370 and AZD6244 and cell proliferation was detected by CCK-8 assay. Data were show as mean ± SD of three independent experiments. *: p < 0.05 determined by t-tests at each data point. […]

Compound: O=C(N1CCCC1)N1CCC(n2cnc3c(-n4c(C(F)F)nc5ccccc54)nc(N4CCOCC4)nc32)CC1 [X-370]
- activity against all kinases of the panel [1]: little activity
- Erk1/2 phosphorylation (Raji MEK DD cells): failed to inhibit
